# Measurements from patent publication US10526347B2, “3-(3H-imidazo[4,5-B]pyridin-2-yl)-1H-pyrazolo[3,4-B]pyridine and therapeutic uses thereof” (Samumed, LLC, priority 2014, dated 2020).
# pIC50: −log10 of the molar value.
# Tested on: Wnt activity (SW480 colon carcinoma cells stably expressing the Sp5-Luc reporter gene)
# Assay: Sp5-Luc reporter gene screening assay for Wnt activity
# Type: cell-based
# Details: Homo sapiens
# Description: The screening assay for Wnt activity is described as follows. Reporter cell lines can be generated by stably transducing cancer cell lines (e.g., colon cancer) or primary cells (e.g., IEC-6 intestinal cells) with a lentiviral construct that includes a Wnt-responsive promoter driving expression of the firefly luciferase gene.
# SW480 colon carcinoma cells were transduced with a lentiviral vector expressing luciferase with a human Sp5 promoter consisting of a sequence of eight TCF/LEF binding sites. SW480 cells stably expressing the Sp5-Luc reporter gene and a hygromycin resistance gene were selected by treatment with 150 μg/ml of hygromycin for 7 days. These stably transduced SW480 cells were expanded in cell culture and used for all further screening activities. For Sp5-Luc reporter gene assays, the cells were plated at 10,000 cells/well in 96-well plates with growth medium containing 10% fetal calf serum and incubated overnight at 37° C. and 5% CO2. Each compound was dissolved in DMSO as a 10 mM stock in standard j-vials and used to prepare compound source plates in dose-response format with 3-fold serial dilutions and a 10 mM top concentration. Compound transfer from serially diluted source plates to assay plates containing the cells was accomplished using a pintool (Multimek 96, Beckman equipped with V&P Scientific FP1S50H pins) based liquid handling protocol. This protocol used a slotted pin to transfer 50 nl of compound from a source plate well to an assay plate well containing 50 μl of cells in growth medium. […] Control wells received 50 nl of DMSO treatment for normalization and calculating IC50 values. The treated cells were incubated at 37° C. and 5% CO2 for an additional forty-two hours. Following incubation, the growth medium was removed and 50 μl of BrightGlo luminescence reagent (Promega) was added to each well of the 96-well assay plates. The plates were placed on an orbital shaker for 5 min and then luminescence was quantified on the Victor3 (Perkin Elmer) plate reader. Readings were normalized to DMSO only treated cells, and normalized activities were utilized for IC50 calculations using the dose-response log (inhibitor) vs. response -variable slope (four parameters) nonlinear regression feature available in GraphPad Prism 5.0 or 6.0.
row,pIC50,SMILES
1,6.76,"CN(C)c1cncc(-c2cnc3[nH]nc(-c4nc5c(-c6cccc(F)c6)ccnc5[nH]4)c3c2)c1 [Compound 5, 5-(3-(7-(3-Fluorophenyl)-3H-imidazo[4,5-b]pyridin-2-yl)-1H-pyrazolo [3,4-b]pyridin-5-yl)-N,N-dimethylpyridin-3-amine]"
2,7.45,"Fc1cccc(-c2ccnc3[nH]c(-c4n[nH]c5ncc(-c6cncc(CN7CCC(F)(F)C7)c6)cc45)nc23)c1 [Compound 21, 5-(5-((3,3-Difluoropyrrolidin-1-yl)methyl)pyridin-3-yl)-3-(7-(3-fluorophenyl)-3H-imidazo[4,5-b]pyridin-2-yl)-1H-pyrazolo[3,4-b]pyridine]"
3,6.42,"Fc1ccc(-c2ccnc3[nH]c(-c4n[nH]c5ncc(-c6cncnc6)cc45)nc23)cc1 [Compound 44, 3-(7-(4-Fluorophenyl)-3H-imidazo[4,5-b]pyridin-2-yl)-5-(pyrimidin-5-yl)-1H-pyrazolo[3,4-b]pyridine]"
4,6.93,"CC(C)(C)CC(=O)Nc1cncc(-c2cnc3[nH]nc(-c4nc5c(-c6ccccc6F)ccnc5[nH]4)c3c2)c1 [Compound 57, N-(5-(3-(7-(2-Fluorophenyl)-3H-imidazo[4,5-b]pyridin-2-yl)-1H-pyrazolo[3,4-b]pyridin-5-yl)pyridin-3-yl)-3,3-dimethylbutanamide]"
5,6.51,"CN1CCN(c2ccnc3[nH]c(-c4n[nH]c5ncc(-c6cncc(NC(=O)C7CCCC7)c6)cc45)nc23)CC1 [Compound 204, N-(5-(3-(7-(4-Methylpiperazin-1-yl)-3H-imidazo[4,5-b]pyridin-2-yl)-1H-pyrazolo[3,4-b]pyridin-5-yl)pyridin-3-yl)cyclopentanecarboxamide]"
6,< 5.00,"CN1CCN(c2ccnc3[nH]c(-c4n[nH]c5ncc(-c6cncnc6)cc45)nc23)CC1 [Compound 209, 3-(7-(4-Methylpiperazin-1-yl)-3H-imidazo[4,5-b]pyridin-2-yl)-5-(pyrimidin-5-yl)-1H-pyrazolo[3,4-b]pyridine]"
7,6.72,"CC(C)(C)CC(=O)Nc1cncc(-c2cnc3[nH]nc(-c4nc5cccnc5[nH]4)c3c2)c1 [Compound 222, N-(5-(3-(3H-Imidazo[4,5-b]pyridin-2-yl)-1H-pyrazolo[3,4-b]pyridin-5-yl)pyridin-3-yl)-3,3-dimethylbutanamide]"
8,8.09,"CCCCC(=O)Nc1cncc(-c2cnc3[nH]nc(-c4nc5c(-c6ccoc6)ccnc5[nH]4)c3c2)c1 [Compound 276, N-(5-(3-(7-(Furan-3-yl)-3H-imidazo[4,5-b]pyridin-2-yl)-1H-pyrazolo [3,4-b]pyridin-5-yl)pyridin-3-yl)pentanamide]"
9,7.36,"CN(C)c1cncc(-c2cnc3[nH]nc(-c4nc5c(-c6cccs6)ccnc5[nH]4)c3c2)c1 [Compound 291, N,N-Dimethyl-5-(3-(7-(thiophen-2-yl)-3H-imidazo[4,5-b]pyridin-2-yl)-1H-pyrazolo[3,4-b]pyridin-5-yl)pyridin-3-amine]"
10,7.42,"FC1(F)CCN(Cc2cncc(-c3cnc4[nH]nc(-c5nc6c(-c7cccs7)ccnc6[nH]5)c4c3)c2)C1 [Compound 309, 5-(5-((3,3-Difluoropyrrolidin-1-yl)methyl)pyridin-3-yl)-3-(7-(thiophen-2-yl)-3H-imidazo[4,5-b]pyridin-2-yl)-1H-pyrazolo[3,4-b]pyridine]"
11,5.99,"NC1CN(c2cncc(-c3cnc4[nH]nc(-c5nc6c(-c7cccc(F)c7)ccnc6[nH]5)c4c3)n2)C1 [Compound 914, 1-(6-(3-(7-(3-Fluorophenyl)-3H-imidazo[4,5-b]pyridin-2-yl)-1H-pyrazolo [3,4-b]pyridin-5-yl)pyrazin-2-yl)azetidin-3-amine]"
12,< 5.00,"Fc1cccc(-c2ccnc3[nH]c(-c4n[nH]c5ncc(-c6cncc(OC7CCCCC7)c6)cc45)nc23)c1 [Compound 915, 5-(5-(Cyclohexyloxy)pyridin-3-yl)-3-(7-(3-fluorophenyl)-3H-imidazo[4,5-b]pyridin-2-yl)-1H-pyrazolo[3,4-b]pyridine]"
13,< 5.00,"O=C(CC1CCNCC1)Nc1cncc(-c2cnc3[nH]nc(-c4nc5c(-c6cccc(F)c6)ccnc5[nH]4)c3c2)c1 [Compound 917, N-(5-(3-(7-(3-Fluorophenyl)-3H-imidazo[4,5-b]pyridin-2-yl)-1H-pyrazolo [3,4-b]pyridin-5-yl)pyridin-3-yl)-2-(piperidin-4-yl)acetamide]"
14,< 5.00,"Fc1cccc(-c2ccnc3[nH]c(-c4n[nH]c5ncc(-c6cncc(OCCN7CCCC7)c6)cc45)nc23)c1 [Compound 918, 3-(7-(3-Fluorophenyl)-3H-imidazo[4,5-b]pyridin-2-yl)-5-(5-(2-(pyrrolidin-1-yl)ethoxy)pyridin-3-yl)-1H-pyrazolo[3,4-b]pyridine]"
15,< 5.00,"Fc1cccc(-c2ccnc3[nH]c(-c4n[nH]c5ncc(-c6cncc(OCc7ccccc7)c6)cc45)nc23)c1 [Compound 922, 5-(5-(Benzyloxy)pyridin-3-yl)-3-(7-(3-fluorophenyl)-3H-imidazo[4,5-b]pyridin-2-yl)-1H-pyrazolo[3,4-b]pyridine]"
16,< 5.00,"O=C(CC1CCCCC1)Nc1cncc(-c2cnc3[nH]nc(-c4nc5c(-c6cccc(F)c6)ccnc5[nH]4)c3c2)c1 [Compound 923, 2-Cyclohexyl-N-(5-(3-(7-(3-fluorophenyl)-3H-imidazo[4,5-b]pyridin-2-yl)-1H-pyrazolo[3,4-b]pyridin-5-yl)pyridin-3-yl)acetamide]"
17,5.95,"CC(C)CC(=O)Nc1cncc(-c2cnc3[nH]nc(-c4nc5c(-c6cc(F)cc(OCCN(C)C)c6)ccnc5[nH]4)c3c2)c1 [Compound 1234, N-(5-(3-(7-(3-(2-(Dimethylamino)ethoxy)-5-fluorophenyl)-3H-imidazo[4,5-b]pyridin-2-yl)-1H-pyrazolo[3,4-b]pyridin-5-yl)pyridin-3-yl)-3-methylbutanamide]"
18,6.05,"CC(C)CC(=O)Nc1cncc(-c2cnc3[nH]nc(-c4nc5c(-c6cc(F)cc(OCCN7CCCC7)c6)ccnc5[nH]4)c3c2)c1 [Compound 1278, N-(5-(3-(7-(3-Fluoro-5-(2-(pyrrolidin-1-yl)ethoxy)phenyl)-3H-imidazo[4,5-b]pyridin-2-yl)-1H-pyrazolo[3,4-b]pyridin-5-yl)pyridin-3-yl)-3-methylbutanamide]"
19,6.40,"CC(C)CC(=O)Nc1cncc(-c2cnc3[nH]nc(-c4nc5c(-c6cc(O)cc(F)c6)ccnc5[nH]4)c3c2)c1 [Compound 1322, N-(5-(3-(7-(3-Fluoro-5-hydroxyphenyl)-3H-imidazo[4,5-b]pyridin-2-yl)-1H-pyrazolo[3,4-b]pyridin-5-yl)pyridin-3-yl)-3-methylbutanamide]"
20,6.90,"COc1cc(F)cc(-c2ccnc3[nH]c(-c4n[nH]c5ncc(-c6cncc(NC(=O)CC(C)C)c6)cc45)nc23)c1 [Compound 1366, N-(5-(3-(7-(3-Fluoro-5-methoxyphenyl)-3H-imidazo[4,5-b]pyridin-2-yl)-1H-pyrazolo[3,4-b]pyridin-5-yl)pyridin-3-yl)-3-methylbutanamide]"
